In brackets after ≈: the same amount, converted by molar mass.
Key:
[1] = test system: Sphingomonas paucimobilis; assay: Antibacterial activity against Flavobacterium devorans ATCC 10829 incubated for 24 hrs; type: functional
Bacillus spizizenii = assay: Antibacterial activity against Bacillus subtilis ATCC 6633 incubated for 24 hrs by broth dilution method; type: functional
Pseudomonas fluorescens = assay: Antibacterial activity against Pseudomonas fluorescens NCIM 2173 incubated for 24 hrs; type: functional
Escherichia coli [2] = assay: Antibacterial activity against Escherichia coli NCIM 2256 incubated for 24 hrs; type: functional
Escherichia coli [3] = assay: Antibacterial activity against Escherichia coli ATCC 25922 incubated for 24 hrs by broth dilution method; type: functional
Proteus vulgaris = assay: Antibacterial activity against Proteus vulgaris ATCC […] incubated for 24 hrs by broth dilution method; type: functional
Staphylococcus aureus [4] = assay: Antibacterial activity against Staphylococcus aureus ATCC 29737 incubated for 24 hrs; type: functional
Micrococcus luteus = assay: Antibacterial activity against Micrococcus Luteus ATCC 398 incubated for 24 hrs; type: functional
Staphylococcus aureus [5] = assay: Antibacterial activity against Staphylococcus aureus ATCC 9144 incubated for 24 hrs by broth dilution method; type: functional
Bacillus cereus = assay: Antibacterial activity against Bacillus cereus ATCC 6630 incubated for 24 hrs; type: functional
Bacillus subtilis = assay: Antibacterial activity against Bacillus subtilis assessed as inhibition zone at 1 mg/ml measured after overnight incubation by disc diffusion method; type: functional; details: read-out: IZ
Staphylococcus aureus [6] = assay: Antibacterial activity against Staphylococcus aureus assessed as inhibition zone at 1 mg/ml measured after overnight incubation by disc diffusion method; type: functional; details: read-out: IZ
Klebsiella pneumoniae [7] = assay: Antibacterial activity against Klebsiella pneumoniae MTCC 618 incubated for 24 hrs by microdilution method; type: functional
Escherichia coli [8] = assay: Antibacterial activity against Escherichia coli assessed as inhibition zone at 1 mg/ml measured after overnight incubation by disc diffusion method; type: functional; details: read-out: IZ
Pseudomonas aeruginosa [9] = assay: Antibacterial activity against Pseudomonas aeruginosa assessed as inhibition zone at 1 mg/ml measured after overnight incubation by disc diffusion method; type: functional; details: read-out: IZ
Staphylococcus aureus [10] = assay: Antibacterial activity against methicillin-resistant Staphylococcus aureus; type: functional
Staphylococcus aureus [11] = assay: Antibacterial activity against constitutively-resistant Staphylococcus aureus; type: functional
Staphylococcus aureus [12] = assay: Antibacterial activity against inducibly-resistant Staphylococcus aureus; type: functional
Escherichia coli [13] = assay: Antibacterial activity against Escherichia coli JM109 after overnight incubation by CLSI M7-A9 based method; type: functional
Enterococcus faecalis [14] = assay: Antibacterial activity against Enterococcus faecalis ATCC 29212 after overnight incubation by CLSI M7-A9 based method; type: functional
Staphylococcus aureus [15] = assay: Antibacterial activity against Staphylococcus aureus CIP 6525 after overnight incubation by CLSI M7-A9 based method; type: functional
Escherichia coli [16] = assay: Antibacterial activity against Escherichia coli ATCC 25922 after overnight incubation by CLSI M7-A9 based method; type: functional
Enterococcus faecalis [17] = assay: Antibacterial activity against Enterococcus faecalis MTCC 439 incubated overnight by broth dilution technique; type: functional, organism-based
Escherichia coli [18] = assay: Antibacterial activity against Escherichia coli ATCC 25922 incubated overnight by broth dilution technique; type: functional, organism-based
Salmonella enterica = assay: Antibacterial activity against Salmonella enterica MTCC 3224 incubated overnight by broth dilution technique; type: functional, organism-based
Pseudomonas aeruginosa [19] = assay: Antibacterial activity against Pseudomonas aeruginosa MTCC 2453 incubated overnight by broth dilution technique; type: functional, organism-based
Streptococcus pneumoniae = assay: Antibacterial activity against Streptococcus pneumoniae MTCC 655 incubated overnight by broth dilution technique; type: functional, organism-based
Klebsiella pneumoniae [20] = assay: Antibacterial activity against Klebsiella pneumoniae ATCC 700603 incubated overnight by broth dilution technique; type: functional, organism-based

## O=C(N[C@H](CO)[C@H](O)c1ccc([N+](=O)[O-])cc1)C(Cl)Cl [CHLORAMPHENICOL]
[1]
  MIC: 2 µg/mL (≈ 6.19 µM)
Bacillus spizizenii
  MIC: 1.56 µg/mL (≈ 4.83 µM)
Pseudomonas fluorescens
  MIC: 2 µg/mL (≈ 6.19 µM)
Escherichia coli [2]
  MIC: 2 µg/mL (≈ 6.19 µM)
Escherichia coli [3]
  MIC: 1.56 µg/mL (≈ 4.83 µM)
Proteus vulgaris
  MIC: 1.56 µg/mL (≈ 4.83 µM)
Staphylococcus aureus [4]
  MIC: 2 µg/mL (≈ 6.19 µM)
Micrococcus luteus
  MIC: 2 µg/mL (≈ 6.19 µM)
Staphylococcus aureus [5]
  MIC: 1.56 µg/mL (≈ 4.83 µM)
Bacillus cereus
  MIC: 2 µg/mL (≈ 6.19 µM)

## CCn1cc(C(=O)O)c(=O)c2cc(F)c(N3CCNCC3)cc21 [NORFLOXACIN]
Bacillus subtilis
  zone of inhibition at 1000 µg/mL: 2.5 mm
Staphylococcus aureus [6]
  zone of inhibition at 1000 µg/mL: 2.5 mm
Klebsiella pneumoniae [7]
  MIC: 9.38 µg/mL (≈ 29.4 µM)
Escherichia coli [8]
  zone of inhibition at 1000 µg/mL: 2.5 mm
Pseudomonas aeruginosa [9]
  zone of inhibition at 1000 µg/mL: 2.5 mm

## O=C(/C=C1\C(=O)N(Cc2cn(Cc3ccccc3)nn2)c2ccc(Br)cc21)c1cc(Cl)cc(Cl)c1OCc1cn(Cc2ccccc2)nn1
Bacillus spizizenii
  MIC: 1.56 µg/mL (≈ 2.06 µM)
Escherichia coli [3]
  MIC: 1.56 µg/mL (≈ 2.06 µM)
Proteus vulgaris
  MIC: 1.56 µg/mL (≈ 2.06 µM)
Staphylococcus aureus [5]
  MIC: 1.56 µg/mL (≈ 2.06 µM)

## CO[C@@H]1[C@@H](O[C@@H]2O[C@H](C)[C@@H](O[C@H]3C[C@@](C)(O)[C@@H](OC(=O)CCCc4cn(CSc5ccccc5)nn4)[C@H](C)O3)[C@H](N(C)C)[C@H]2O)[C@H]2CC(O[Si](C)(C)C(C)(C)C)O[C@@H]1CC(=O)O[C@H](C)CC/C=C/C=C/[C@H](O[C@H]1CC[C@H](N(C)C)[C@@H](C)O1)[C@H](C)C2 (stereo partly drawn)
Staphylococcus aureus [10]
  MIC: 8 µg/mL (≈ 6.5 µM)
Staphylococcus aureus [11]
  MIC: 8 µg/mL (≈ 6.5 µM)
Staphylococcus aureus [12]
  MIC: 8 µg/mL (≈ 6.5 µM)

## GENTAMICIN
Bacillus spizizenii
  MIC: 1.56 µg/mL
Escherichia coli [3]
  MIC: 1.56 µg/mL
Proteus vulgaris
  MIC: 1.56 µg/mL
Staphylococcus aureus [5]
  MIC: 1.56 µg/mL

## C[C@H](c1ccccc1)N(CC(N)=O)C(=O)CN(C(=O)CN(Cc1cn(CCN)nn1)C(=O)CN(C(=O)CN(C(=O)CN(Cc1cn(CCN)nn1)C(=O)CN(C(=O)CN(C(=O)CN(Cc1cn(CCN)nn1)C(=O)CN(C(=O)CN(C(=O)CNCc1cn(CCN)nn1)[C@H](C)c1ccccc1)[C@H](C)c1ccccc1)[C@H](C)c1ccccc1)[C@H](C)c1ccccc1)[C@H](C)c1ccccc1)[C@H](C)c1ccccc1)[C@H](C)c1ccccc1
Escherichia coli [13]
  MIC: > 1.6 µg/mL
Enterococcus faecalis [14]
  MIC: > 1.6 µg/mL
Staphylococcus aureus [15]
  MIC: > 1.6 µg/mL
Escherichia coli [16]
  MIC: > 1.6 µg/mL

## Clc1ccc(-n2cc(COc3cccc4cccnc34)nn2)cc1
Enterococcus faecalis [17]
  IC50: 106 µg/mL (≈ 315 µM)
Escherichia coli [18]
  IC50: 106 µg/mL (≈ 315 µM)
Salmonella enterica
  IC50: 106 µg/mL (≈ 315 µM)
Pseudomonas aeruginosa [19]
  IC50: 106 µg/mL (≈ 315 µM)
Streptococcus pneumoniae
  IC50: 106 µg/mL (≈ 315 µM)
Klebsiella pneumoniae [20]
  IC50: 106 µg/mL (≈ 315 µM)

## c1ccc(-n2cc(COc3cccc4cccnc34)nn2)cc1
Enterococcus faecalis [17]
  IC50: 106 µg/mL (≈ 350 µM)
Escherichia coli [18]
  IC50: 106 µg/mL (≈ 350 µM)
Salmonella enterica
  IC50: 106 µg/mL (≈ 350 µM)
Pseudomonas aeruginosa [19]
  IC50: 106 µg/mL (≈ 350 µM)
Streptococcus pneumoniae
  IC50: 106 µg/mL (≈ 350 µM)
Klebsiella pneumoniae [20]
  IC50: 106 µg/mL (≈ 350 µM)

## CO[C@@H]1[C@@H](O[C@@H]2O[C@H](C)[C@@H](O[C@H]3C[C@@](C)(O)[C@@H](OC(=O)CCCc4cn(C56CC7CC(CC(C7)C5)C6)nn4)[C@H](C)O3)[C@H](N(C)C)[C@H]2O)[C@H]2CC(O[Si](C)(C)C(C)(C)C)O[C@@H]1CC(=O)O[C@H](C)CC/C=C/C=C/[C@H](O[C@H]1CC[C@H](N(C)C)[C@@H](C)O1)[C@H](C)C2 (stereo partly drawn)
Staphylococcus aureus [10]
  MIC: 8 µg/mL (≈ 6.44 µM)
Staphylococcus aureus [11]
  MIC: 8 µg/mL (≈ 6.44 µM)
Staphylococcus aureus [12]
  MIC: 8 µg/mL (≈ 6.44 µM)

## NS(=O)(=O)c1ccc(-n2cc(COc3cccc4cccnc34)nn2)cc1
Enterococcus faecalis [17]
  IC50: 106 µg/mL (≈ 278 µM)
Escherichia coli [18]
  IC50: 106 µg/mL (≈ 278 µM)
Salmonella enterica
  IC50: 106 µg/mL (≈ 278 µM)
Pseudomonas aeruginosa [19]
  IC50: 106 µg/mL (≈ 278 µM)
Streptococcus pneumoniae
  IC50: 106 µg/mL (≈ 278 µM)
Klebsiella pneumoniae [20]
  IC50: 106 µg/mL (≈ 278 µM)

## SPIRAMYCIN
Staphylococcus aureus [10]
  MIC: > 256 µg/mL
Staphylococcus aureus [11]
  MIC: > 256 µg/mL
Staphylococcus aureus [12]
  MIC: > 256 µg/mL

## C[C@H](c1ccccc1)N(CC(N)=O)C(=O)CN(C(=O)CN(Cc1cn(CCN)n[n+]1C)C(=O)CN(C(=O)CN(C(=O)CN(Cc1cn(CCN)n[n+]1C)C(=O)CN(C(=O)CN(C(=O)CNCc1cn(CCN)n[n+]1C)[C@H](C)c1ccccc1)[C@H](C)c1ccccc1)[C@H](C)c1ccccc1)[C@H](C)c1ccccc1)[C@H](C)c1ccccc1
Escherichia coli [13]
  MIC: > 1.6 µg/mL
Enterococcus faecalis [14]
  MIC: > 1.6 µg/mL
Staphylococcus aureus [15]
  MIC: > 1.6 µg/mL
Escherichia coli [16]
  MIC: > 1.6 µg/mL

Reference: ChEMBL document CHEMBL4699440, “Comprehensive review on the anti-bacterial activity of 1,2,3-triazole hybrids” (Eur J Med Chem, 2019)
